Test system: pads of fat near the waist ("love handles")
Conditions: patient; niacin 500 mg rising to 1500 mg/day orally by tablet over 14 days; 635 nm diode laser, max 10 mW, 30 min scanning sessions

## O=C(O)c1cccnc1 [niacin, nicotinic acid]
  Fat reduction: love handles after treatment: reduced

Source: patent US20110295187A1 (Erchonia Corporation, priority 2004, published 2011)
